Structures can show the parent of a compound that is named as a salt.
Assays:
PDE 4 = PDE 4 Enzyme Inhibition (SPA); type: biochemical; conditions: enzyme from human PMNs, cAMP 1 μM; for IC50: 40 minutes at 30° C.
From the text: PDE 4 Enzyme Inhibition Study a) Purification of Human Polymorphonucleate Leukocytes The polymorphonucleate leukocytes (PMNs) were isolated from peripheral blood of healthy volunteers according to what described by Boyum A., Scand. J. Immunol., 1976, 50 suppl., 9). Shortly, the isolation of the PMNs was effected by Ficoll-Paque gradient centrifugation followed by sedimentation on dextrane and the erythrocyte contanunation was eliminated by hypotonic lysis. b) PDE 4 Enzyme Purification The human PMNs were re-suspended in TRIS/HCl buffer (10 mM pH 7.8) containing MgCl2 (5 mM), EGTA (4 mM), mercaptoethanol (5 mM), TRITON-X100 (1%), pepstatin A (1 μM), PMSF (100 μM) and leupeptin (1 μM), and homogenized by Polytron. The homogenate was centrifuged at 25,000×g per 30 minutes at 4° C. and the sumatant was used for the PDE 4 enzyme purification by ion exchange chromatography using the FPLC technique according to what described by Schudt C. et al., Naunyn-Schmidberg's Arch. Pharmacol., 1991, 334, 682. The surnatant was seeded on a UNO Q12 column (Bio-Rad) and the enzyme was eluted by sodium acetate gradient from 50 mM to 1M. The fractions containing enzymatic activity were joined, dialysed against water and concentrated. The resulting PDE 4 enzyme was stored at -20° C. in the presence of ethylenglycole (30%) v/v) till the use c) PDE 4 Enzyme Inhibition The enzyme activity was evaluated with an Amersham kit based on the SPA technique (Scintillation Proximity Assay). The enzymatic reaction was effected in a total volume of 100 μl of TRIS/HCl buffer (50 mM, pH7.5), MgCl2, (8.3 mM), EGTA (1.7 mM), cAMP (1 μM) and [^3 H]cAMP (~100.000 dpm). The compounds of the invention were added at the wanted concentrations. The reaction was started by adding the enzyme (15 μg protein/ml) in 40 minutes at 30° C. and stopped by adding 50 μl of suspension of SPA particles. The radioactivity due to the particles was measured in β-emitting counter. The IC50 values were calculated on 9 equidistant concentrations in logarithmic scale using a 4-parameters logistic function by a software.

TNFα = TNFα Synthesis Inhibition (LPS-induced, human monocytes, ELISA); type: cell-based; conditions: Monocyte, LPS 1 ng/ml, 16 hours at 37° C.
Protocol: TNFα Inhibition Test a) Human Monocytes Isolation The monocytes were isolated from peripheral blood of healthy volunteers according the procedure of […]. Natl. Cancer Inst., 1964, 32, 507. The monocytes and lymphocytes population was isolated by Ficoll gradient centrifugation, and the cells diluted at a density of 2.5×10^6 cells/ml in RPMI1640 incubation containing 1% inactivated bovine fetal serum, penicillin (100 U/ml) and streptomycin (100 U/ml) were placed in 24-wells plates (1 ml/well) and left to adhere for 1 hour at 37° C. with 5% CO2. At the end of the incubation the lymphocytes not adhering were removed by aspiration and the monocytes adhered to the plate were used in the next step. b) TNFα Synthesis Inhibition The TNFα synthesis from human monocytes was measured according to the method of Barnette M. et al., Biochemical Pharmacology, 1996, 51, 949. The monocytes were incubated for 1 hour with 1 ml of RPMI1640 incubation medium (1% inactivated bovine serum, 100 U/ml penicillin and streptomycin) containing different concentrations of the products according to the present invention or the carrier only for the controls. The TNFα synthesis from monocytes was induced by adding 1 ng/ml of LPS (lipopolysaccharide of E. Coli) and after 16 hours of incubation at 37° C., 5% CO2, the incubation medium was removed, and the surnatant stored at -80° C. until the measurement. The TNFα levels were determined by ELISA test with an Amersham kit. The results are set forth in Table 2 as IC50 measured with the same calculation of example 53.

PDE 5 = target: T1, PDE 5 (Homo sapiens, UniProt O76074); assay: PDE 5 Enzyme Inhibition Test (SPA); type: biochemical; conditions: enzyme from human platelets; cGMP 1 μM; head prints (μM), no concentration figure
T1 construct: from tissue; host or cells: human platelets from platelet rich plasma
Protocol: (§1) PDE 3 and 5 Enzymes Inhibition Test a) Human Platelet Preparation
(§2) Human platelets were prepared from platelet rich plasma (PRP) obtained from the Hematological Dept. of the "L. Sacco" Hospital of Milan. […]
(§3) b) Purification of PDE 3 and PDE 5 with Fast Protein Liquid Chromatography (FPLC) Before the chromatographic step, platelets were thawed and 50 ml of 20 mM TRIS (pH=6.5) containing 5 mM β-mercapto-ethanol, 2 mM EDTA, 50 mM sodium acetate and 50 μM PMSF (homogenization buffer) were added. The platelet suspension was then homogenized by a Polytron homogenizer (Polytron PT 1200) for 20 seconds. The homogenate was centrifuged at 14,500 rpm for 20 minutes at 4° C., and the supernatant was applied to a UNO Q12 column (Bio-Rad) pre-equilibrated with the PMSF. A flow rate of 4.5 ml/min was used throughout the ion exchange chromatography procedure. The column was washed with PMSF (180 ml) and PDE 3 and PDE 5 were eluted by sodium acetate linear gradient from 0.05M to 1M. The fractions containing enzymatic activity were joined, dialyzed against water and concentrated 10 times by ultrafiltration. The resulting solution was stored at -20° C. in the presence of ethylenglycole (30%) v/v) until use. […]
(§4) c) Assay of Phoshodiesterase Activity
(§5) The enzyme activity was assessed with an Amersham kit based on the SPA technique (Scintillation Proximity Assay). The enzymatic reaction was effected in a total volume of 100 μl of TRIS/HCl buffer (50 mM, pH7.5), MgCl2 (8.3 mM), EGTA (1.7 mM), cAMP (for PDE 3 assay) or cGMP (for PDE 5 assay) (1 μM), [^3 H]cAMP or [^3 H]cGMP (10 μl), and 10 μl of the compounds of the invention. The reaction was started by adding the enzyme (10 μl) incubated for 40 minutes at 30° C. and stopped by adding 50 μl of SPA beads. The radioactivity due to the particles was measured in β-emitting counter. The results are expressed as percent activity versus the control present in each test.

PDE 3 = target: T2, PDE 3 (Homo sapiens, UniProt Q14432); assay: PDE 3 Enzyme Inhibition Test (SPA); type: biochemical; conditions: enzyme from human platelets; cAMP 1 μM; head prints (μM), no concentration figure
T2 construct: the supernatant was applied to a UNO Q12 column (Bio-Rad); from tissue; host or cells: human platelets from platelet rich plasma
T2 sequence (Q14432 whole entry): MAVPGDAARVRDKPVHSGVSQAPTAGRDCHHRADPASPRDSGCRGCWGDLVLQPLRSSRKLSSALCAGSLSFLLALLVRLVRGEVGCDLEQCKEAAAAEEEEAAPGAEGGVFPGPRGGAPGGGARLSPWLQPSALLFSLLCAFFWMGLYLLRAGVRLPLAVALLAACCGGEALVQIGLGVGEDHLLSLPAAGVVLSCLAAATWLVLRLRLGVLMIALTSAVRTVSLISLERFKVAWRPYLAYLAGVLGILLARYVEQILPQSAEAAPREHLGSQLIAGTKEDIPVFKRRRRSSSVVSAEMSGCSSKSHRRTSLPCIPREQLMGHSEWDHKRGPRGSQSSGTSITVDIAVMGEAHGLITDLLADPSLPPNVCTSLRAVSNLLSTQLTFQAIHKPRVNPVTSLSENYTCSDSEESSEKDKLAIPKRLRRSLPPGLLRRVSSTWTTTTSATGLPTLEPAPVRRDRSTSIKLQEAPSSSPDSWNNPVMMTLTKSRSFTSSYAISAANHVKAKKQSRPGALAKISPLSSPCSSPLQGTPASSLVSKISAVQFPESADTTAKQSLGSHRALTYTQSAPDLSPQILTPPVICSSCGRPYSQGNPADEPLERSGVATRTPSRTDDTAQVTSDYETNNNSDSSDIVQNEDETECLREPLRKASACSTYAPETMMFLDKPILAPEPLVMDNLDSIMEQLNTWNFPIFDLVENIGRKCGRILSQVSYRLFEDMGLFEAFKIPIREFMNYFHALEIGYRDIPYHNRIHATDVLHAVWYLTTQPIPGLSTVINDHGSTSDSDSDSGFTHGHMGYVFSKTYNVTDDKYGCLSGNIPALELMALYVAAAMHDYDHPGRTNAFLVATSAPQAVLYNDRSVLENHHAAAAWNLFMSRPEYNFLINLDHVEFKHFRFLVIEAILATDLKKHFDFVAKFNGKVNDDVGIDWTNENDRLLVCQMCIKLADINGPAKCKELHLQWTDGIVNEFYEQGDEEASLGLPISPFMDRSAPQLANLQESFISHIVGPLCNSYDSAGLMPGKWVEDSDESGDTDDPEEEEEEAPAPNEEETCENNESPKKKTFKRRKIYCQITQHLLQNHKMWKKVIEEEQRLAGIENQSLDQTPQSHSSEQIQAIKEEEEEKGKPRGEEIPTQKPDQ
Protocol: as §1, §2, §3, §4, §5

SMILES | PDE 4 % inhibition (PDE 4; 10^-6 M) [%] | IC50 (TNFα) [nM] | PDE 5 % inhibition (μM) (PDE 5) [%] | PDE 3 % inhibition (μM) (PDE 3) [%] | IC50 (PDE 4) [nM] | PDE 4 % inhibition (PDE 4; 10^-5 M) [%]
COc1ccc2c(c1OCCCCCc1ccccc1)CCNC2Cc1c(Cl)cncc1Cl.Cl.Cl (centres unmarked) [Compound 4, 1-(3,5-dichloro-pyridin-4-yl-methyl)-5-(5-phenylpentyloxy)-6-methoxy-1,2,3,4-tetrahydro-isoquinoline Dihydrochloride] | 54 | – | – | – | – | –
COc1ccc2c(c1OCCCCCc1ccccc1)CCN=C2Cc1c(Cl)cncc1Cl.Cl [Compound 3, 1-(3,5-Dichloro-pyridin-4-yl-methyl)-5-(5-phenylpentyloxy)-6-methoxy-3,4-dihydro-isoquinoline Hydrochloride] | 93 | 83 ± 16 | 12 | 24 | 87.5 ± 17 | –
COc1cc2[nH]cc(-c3c(Cl)cncc3Cl)c(=O)c2cc1OC1CCCC1 [Compound 10, 6-Cyclopentyloxy-3-(3,5-dichloro-pyridin-4-yl)-7-methoxy-1H-quinolin-4-one] | 73 | – | – | – | – | –
COc1ccc2c(c1OC1CCCC1)CCN=C2Cc1c(Cl)cncc1Cl [Compound 1, 5-Cyclopentyloxy-1-(3,5-dichloro-2-pridin-4-yl-methyl)-6-methoxy-3,4-dihydro-isoquinoline Hydrochloride] | 79 | 252 ± 67 | 10 | 0 | 148 ± 18 | 96
COc1cc2c(cc1OC1CCCC1)C(Cc1c(Cl)cncc1Cl)=NCC2.Cl [Compound 2, 7-Cyclopentyloxy-1-(3,5-dichloro-pyridin-4-yl-methyl)-6-methoxy-3,4-dihydro-isoquinoline Hydrochloride] | 54 | – | – | – | 1050 ± 191 | 88
COC(=O)c1c(Cc2c(Cl)cncc2Cl)c2ccc(OC)c(OC3CCCC3)c2[nH]c1=O [Compound 8, 8-Cyclopentyloxy-4-(3,5-dichloro-pyridin-4-yl-methyl)-7-methoxy-2-oxo-1,2-dihydro-quinolin-carboxylic Acid Methyl Ester] | 60 | – | – | – | – | –
COc1cc2c(cc1OC1CCCC1)C(=O)C(c1c(Cl)cncc1Cl)CN2 (centres unmarked) [Compound 12, 6-Cyclopentyloxy-3-(3,5-dichloro-pyridin-4-yl)-7-methoxy-2,3-dihydro-1H-quinolin-4-one] | 94 | 78.7 ± 16 | 10 | 12 | 101 ± 21 | 100

Source: US6297257A, “Benzazine derivatives phosphodiesterase 4 inhibitors” (Zambon Group S.p.A., priority 1997, dated 2001)
